This note sets out measurements from US9353101B2 (Merck Sharp & Dohme Corp., priority 2012, dated 2016).

One experiment deals with T1, CETP (Homo sapiens (Human), UniProt P11597). The experiment can be described thus: In vitro radioactive assay of CETP-catalyzed CE and TG transfer (RTA assay), 95% human serum. The class given is biochemical. As to conditions: RTA assay in 95% human serum; read-out: RTA IC50 (CETP Inhibition). On the procedure: In Vitro Radioactive Assays of CETP-Catalyzed CE and TG Transfer (RTA Assay)
Reagents and sources are: [3H] cholesteryl oleate (GE #TRK.886), [3H] Triolein (Perkin-Elmer NET-431), Butylated hydroxyl toluene (Aldrich, #D4740-4), DOPC (Sigma, # P6354), Sodium Bromide (Fisher scientific #S255-500), PEG 8000 (Fisher, #BP233-1), and human HDL (Intracel Corp #RP-036).
An in vitro assay for determining IC50's to identify compounds that inhibit CETP transfer activity is performed based on a modification of a published method (Morton and Zilversmit, (1981) A plasma inhibitor of triglyceride and cholesteryl ester transfer activities, J. Biol. Chem. 256(23), 11992-11995). The ability of inhibitors to alter CETP activity is performed using two different assays: one using recombinant CETP and one using an endogenous plasma source of CETP. Both assays measure the transfer of [3H] cholesteryl oleate or [3H] triolein from exogenous LDL to HDL.
Radiolabeled donor particles are generated by first combining 100 μl of 200 μM butylated hydroxyl toluene in CHCl3, 216 μL of 21.57 mM DOPC in EtOH, and either 500 μCi [3H]-triolein (Perkin Elmer #NET-431) or 500 μCi [3H]-cholesteryl oleate (GE #TRK886) in a glass tube. Reagents are mixed, dried under nitrogen, and then resuspended in 2 mL of 50 mM Tris, 27 μM EDTA at pH 7.4. After a brief vortex, the solution is sonicated until clear and mixed with 20 mL of fresh human serum. The mixture is incubated overnight at 37° C. The [3H] labeled LDL substrate is separated at 1.063 g/ml density by sequential ultracentrifugal flotation in NaBr according to the method by (Havel, Eder et al. 1955; Chapman, Goldstein et al. 1981). Once isolated the particles are dialyzed 3× in CETP buffer (50 mM Tris, pH 7.4, 100 mM NaCl, 1 mM EDTA). Human HDL is purchased from Intracel and used as the acceptor particles.
Transfer assays are performed in a 96 or 384-well v-bottom polypropylene plate. For the RTA using recombinant CETP (2% RTA), an assay cocktail is prepared with the final concentrations 128 μg/mL HDL, 20 nM rCETP, 2% human serum, and 1×CETP buffer. 1 μL of each test compound diluted in DMSO is added to 47 μL of assay cocktail per well and incubated at 37° C. for 1 hour. To initiate the transfer reaction, 2 μL radiolabeled LDL is added. After an additional 60 min of incubation at 37° C., the transfer action is terminated by precipitation of LDL with an equal volume of 20% W/V PEG 8000. The plates are centrifuged at 2000 rpm for 30 minutes at 4° C. A 40 μL aliquot of the HDL-containing supernatant is transferred to a Packard Optiplate™ with 200 μL of MicroScint™ 20. After mixing, plates are counted by liquid scintillation. Counts present in the supernatant for blanks (wells containing only HDL acceptor, CETP buffer and DMSO) are subtracted from those containing test compounds and used to correct for non-specific transfer.
For the transfer assay using endogenous CETP from serum (95% RTA), the same procedure is used except that human serum is added such that a final concentration of serum of 95% of the total assay volume is achieved, yielding a concentration of approximately 15 nM endogenous CETP in the assay. This is then combined with HDL and CETP buffer and the reaction proceeds as above and is terminated as described.
Comparison of the counts of samples with inhibitors to an uninhibited (DMSO only) positive control yield a percent inhibition. A plot of percent inhibition vs. log of inhibitor concentration, fit to a Sigmoidal 4 parameter equation is used to calculate IC50.
Starting materials are commercially available or are made using known procedures or as shown below. The examples may be synthesized using the general schemes provided below. The data reported for the examples below were obtained using the RTA assay in 95% human serum.
Target sequence in this assay (P11597 18-493 limits assumed): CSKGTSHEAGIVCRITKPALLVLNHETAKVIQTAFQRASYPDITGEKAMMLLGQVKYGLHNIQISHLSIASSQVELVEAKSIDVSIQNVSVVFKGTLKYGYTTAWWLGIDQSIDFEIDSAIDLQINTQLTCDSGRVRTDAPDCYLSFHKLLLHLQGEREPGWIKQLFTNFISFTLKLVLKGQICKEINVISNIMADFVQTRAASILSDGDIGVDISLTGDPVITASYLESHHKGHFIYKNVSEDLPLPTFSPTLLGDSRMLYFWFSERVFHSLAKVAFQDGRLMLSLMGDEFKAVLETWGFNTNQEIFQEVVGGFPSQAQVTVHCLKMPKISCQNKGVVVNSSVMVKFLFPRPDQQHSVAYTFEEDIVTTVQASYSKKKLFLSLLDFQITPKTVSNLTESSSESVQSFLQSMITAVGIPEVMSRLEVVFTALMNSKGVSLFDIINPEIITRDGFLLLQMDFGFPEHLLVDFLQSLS
For orientation: IC50 means the concentration needed to halve the response being measured. Take `COc1ncc(-c2c(C)cc(C(=O)O)cc2C)cc1-c1cnc(N2CC(F)C2)nc1CN1C(=O)O[C@H](c2cc(F)cc(C(F)(F)F)c2)[C@@H]1C` [Example 48, 4-{5-[2-(3-Fluoroazetidin-1-yl)-4-({(4S,5R)-5-[3-fluoro-5-(trifluoromethyl)phenyl]-4-methyl-2-oxo-1,3-oxazolidin-3-yl}methyl)pyrimidin-5-yl]-6-methoxypyridin-3-yl}-3,5-dimethylbenzoic acid]: the IC50 was found to be 15 nM.
In the case of `Cc1cc(C(=O)O)ccc1-c1nc(C(C)(C)C)c(-c2cnc(N3CC(F)(F)C3)nc2CN2C(=O)O[C@H](c3cc(C(F)(F)F)cc(C(F)(F)F)c3)[C@@H]2C)s1` [Example 49, 4-{5-[4-({(4S,5R)-5-[3,5-Bis(trifluoromethyl)phenyl]-4-methyl-2-oxo-1,3-oxazolidin-3-yl}methyl)-2-(3,3-difluoroazetidin-1-yl)pyrimidin-5-yl]-4-tert-butyl-1,3-thiazol-2-yl}-3-methylbenzoic acid], the IC50 stood at 800 nM.
In the case of `Cc1cc(C(=O)O)ccc1-c1nc(C(C)(C)C)c(-c2cnc(N3CC(F)C3)nc2CN2C(=O)O[C@H](c3cc(C(F)(F)F)cc(C(F)(F)F)c3)[C@@H]2C)s1` [Example 50, 4-{5-[4-({(4S,5R)-5-[3,5-Bis(trifluoromethyl)phenyl]-4-methyl-2-oxo-1,3-oxazolidin-3-yl}methyl)-2-(3-fluoroazetidin-1-yl)pyrimidin-5-yl]-4-tert-butyl-1,3-thiazol-2-yl}-3-methylbenzoic acid], the IC50 was determined as 197 nM.
Consider `Cc1cc(C(=O)O)ccc1-c1nc(C)c(-c2cnc(N3CC(F)C3)nc2CN2C(=O)O[C@H](c3cc(C(F)(F)F)cc(C(F)(F)F)c3)[C@@H]2C)s1` [Example 51, 4-{5-[4-({(4S,5R)-5-[3,5-Bis(trifluoromethyl)phenyl]-4-methyl-2-oxo-1,3-oxazolidin-3-yl}methyl)-2-(3-fluoroazetidin-1-yl)pyrimidin-5-yl]-4-methyl-1,3-thiazol-2-yl}-3-methylbenzoic acid], for which the IC50 amounted to 33 nM.
On the same count and under the same terms, with `Cc1cc(C(=O)O)ccc1-c1nc(C)c(-c2cnc(N3CC(F)(F)C3)nc2CN2C(=O)O[C@H](c3cc(C(F)(F)F)cc(C(F)(F)F)c3)[C@@H]2C)s1` [Example 52, 4-{5-[4-({(4S,5R)-5-[3,5-Bis(trifluoromethyl)phenyl]-4-methyl-2-oxo-1,3-oxazolidin-3-yl}methyl)-2-(3,3-difluoroazetidin-1-yl)pyrimidin-5-yl]-4-methyl-1,3-thiazol-2-yl}-3-methylbenzoic acid] the figure was 61 nM; with `Cc1cc(C(=O)O)ccc1-c1cnc(C)c(-c2cnc(N3CC(F)C3)nc2CN2C(=O)O[C@H](c3cc(C(F)(F)F)cc(C(F)(F)F)c3)[C@@H]2C)c1` [Example 54, 4-{5-[4-({(4S,5R)-5-[3,5-Bis(trifluoromethyl)phenyl]-4-methyl-2-oxo-1,3-oxazolidin-3-yl}methyl)-2-(3-fluoroazetidin-1-yl)pyrimidin-5-yl]-6-methylpyridin-3-yl}-3-methylbenzoic acid], 26 nM.
Same read-out and setting: then `COc1ncc(-c2ccc(C(=O)OC(C)(C)C)cc2C)cc1-c1ccc(N2CCOCC2)nc1CN1C(=O)O[C@H](c2cc(C(F)(F)F)cc(C(F)(F)F)c2)[C@@H]1C` [Example 55], with 22 nM.
With `COc1ncc(-c2ccc(C(=O)O)cc2C)cc1-c1ccc(N2CCOCC2)nc1CN1C(=O)O[C@H](c2cc(C(F)(F)F)cc(C(F)(F)F)c2)[C@@H]1C` [Example 56], the half-maximal inhibitory concentration (IC50) is 9 nM.
As for `COc1ncc(-c2c(C)cc(C(=O)OC(C)(C)C)cc2C)cc1-c1ccc(N2CC(F)(F)C2)nc1CN1C(=O)O[C@H](c2cc(C(F)(F)F)cc(C(F)(F)F)c2)[C@@H]1C` [Example 57], the IC50 turned out to be 5 nM.
As for `COc1ncc(-c2c(C)cc(C(=O)O)cc2C)cc1-c1ccc(N2CC(F)(F)C2)nc1CN1C(=O)O[C@H](c2cc(C(F)(F)F)cc(C(F)(F)F)c2)[C@@H]1C` [Example 58], the IC50 is 7 nM.
Still for that read-out and setting: with `COc1ncc(-c2ccc(C(=O)OC(C)(C)C)cc2C)cc1-c1ccc(N2CC(F)(F)C2)nc1CN1C(=O)O[C@H](c2cc(C(F)(F)F)cc(C(F)(F)F)c2)[C@@H]1C` [Example 59] the figure was 15 nM; with `COc1ncc(-c2ccc(C(=O)O)cc2C)cc1-c1ccc(N2CC(F)(F)C2)nc1CN1C(=O)O[C@H](c2cc(C(F)(F)F)cc(C(F)(F)F)c2)[C@@H]1C` [Example 60], 5 nM; with `COc1ncc(-c2ccc(C(=O)OC(C)(C)C)cc2C)cc1-c1ccc(N2CC(F)C2)nc1CN1C(=O)O[C@H](c2cc(C(F)(F)F)cc(C(F)(F)F)c2)[C@@H]1C` [Example 61], 15 nM.
Still for that read-out and setting: with `COc1ncc(-c2ccc(C(=O)O)cc2C)cc1-c1ccc(N2CC(F)C2)nc1CN1C(=O)O[C@H](c2cc(C(F)(F)F)cc(C(F)(F)F)c2)[C@@H]1C` [Example 62] the figure was 6 nM; with `COc1ncc(-c2c(C)cc(C(=O)O)cc2C)cc1-c1cnc(N2CC(F)(F)C2)cc1CN1C(=O)O[C@H](c2cc(C(F)(F)F)cc(C(F)(F)F)c2)[C@@H]1C` [Example 63], 52 nM; with `Cc1noc(C)c1-c1cnc(N2CCC2)nc1CN1C(=O)O[C@H](c2cc(C(F)(F)F)cc(C(F)(F)F)c2)[C@@H]1C` [Example 64, (4S,5R)-3-{[2-(azetidin-1-yl)-5-(3,5-dimethylisoxazol-4-yl)pyrimidin-4-yl]methyl}-5-[3,5-bis(trifluoromethyl)phenyl]-4-methyl-1,3-oxazolidin-2-one], 271 nM.

The target of another experiment is T1, CETP. As to the kind of experiment: Scintillation Proximity Assay (SPA) for CETP Activity. The class given is biochemical. Conditions: 15 nM CETP, biotinylated LDL, 3H-cholesterol ester HDL; read-out: SPA IC50 (CETP Inhibition). On the procedure:
Protocol: Scintillation Proximity Assay (SPA) for CETP Activity
First, low density lipoprotein (LDL) (Meridian) was biotinylated by incubating LDL with biotin for 1 hour on ice, after which it was dialyzed to remove free biotin. Then compounds at varying concentrations were incubated with 15 nM CETP (reagent production group, In Vitro Pharmacology, MRL Rahway) and 50 ug/ml of the biotinylated LDL in 50 mM HEPES, 150 mM NaCl, pH 7.4, for 1 hour at 37° C. The reaction was started by adding ^3H-cholesterol ester high density lipoprotein (HDL) (American Radiochemicals Corp) at a concentration of ˜0.6 nM. The reaction proceeded for 2 hours at 37° C., after which time it was quenched by the addition of 12% acetic acid. PVT streptavadin-coated scintillation proximity beads, which had been brought to room temperature, were then added at a concentration of 4 mg/ml. The assay was then mixed and counted after one half hour in a Microbeta plate reader.
(In general: Scintillation proximity formats need no separation of bound from free tracer.)
Target sequence in this assay (P11597 18-493): as the sequence (P11597 18-493 limits assumed) above
With `COc1ncc(C(C)C)cc1-c1cnc(N2CC(F)C2)nc1CN1C(=O)O[C@H](c2cc(C(F)(F)F)cc(C(F)(F)F)c2)[C@@H]1C` [Example 2, (4S,5R)-5-[3,5-Bis(trifluoromethyl)phenyl]-3-{[2-(3-fluoroazetidin-1-yl)-5-(5-isopropyl-2-methoxypyridin-3-yl)pyrimidin-4-yl]methyl}-4-methyl-1,3-oxazolidin-2-one], the half-inhibitory concentration (IC50) is 11 nM.
Take `COc1ncc(-c2cnn(C)c2)cc1-c1cnc(N2CC(F)C2)nc1CN1C(=O)O[C@H](c2cc(C(F)(F)F)cc(C(F)(F)F)c2)[C@@H]1C` [Example 4]: the IC50 was determined as 137 nM.
The same measure, in the same setting: with `COc1ncc(C2CC2)cc1-c1cnc(N2CC(F)C2)nc1CN1C(=O)O[C@H](c2cc(C(F)(F)F)cc(C(F)(F)F)c2)[C@@H]1C` [Example 5] the figure was 34 nM; with `COc1ncc(Cl)cc1-c1cnc(N2CCOCC2)nc1CN1C(=O)O[C@H](c2cc(C(F)(F)F)cc(C(F)(F)F)c2)[C@@H]1C` [Example 11, (4S,5R)-5-[3,5-Bis(trifluoromethyl)phenyl]-3-{[5-(5-chloro-2-methoxypyridin-3-yl)-2-(morpholin-4-yl)pyrimidin-4-yl]methyl}-4-methyl-1,3-oxazolidin-2-one], 671 nM.
